Values of other authors in US20240366754A1, “PHARMACEUTICAL COMPOSITIONS FOR DELIVERY OF VIRAL ANTIGENS AND RELATED METHODS” (BioNTech SE, priority 2021, published 2024).
“Also recorded” adds a separate entry of the source. Like-named read-outs stand apart in the source and are kept apart here.

Tests used:
norovirus = details: in vivo

Row | Compound | Most common adverse effects (Intravenous formulations) | Most common adverse effects (Oral formulations) | effect on norovirus illness (norovirus)
1 | Nc1nc2c(ncn2COCCO)c(=O)[nH]1 [acyclovir] | phlebitis, acute renal; also recorded: failure, nausea,; also recorded: vomiting, rash | malaise, headache,; also recorded: nausea, vomiting | –
2 | CC(=O)OCC(CCn1cnc2cnc(N)nc21)COC(C)=O [famciclovir] | – | headache, nausea,; also recorded: fatigue, diarrhea | –
3 | CC(C)[C@H](N)C(=O)OCCOCn1cnc2c(=O)[nH]c(N)nc21 [valacyclovir] | – | headache, nausea,; also recorded: abdominal pain | –
4 | CC(=O)Oc1ccccc1C(=O)Nc1ncc([N+](=O)[O-])s1 [nitazoxanide] | – | – | reduce the duration of illness
5 | O=C(O)P(=O)(O)O [foscarnet] | fever, headache,; also recorded: renal dysfunction,; also recorded: electrolyte; also recorded: abnormalities,; also recorded: nausea, vomiting; also recorded: diarrhea, anemia,; also recorded: granulocytopenia | – | –
